Patent US11845760B2, “PRMT5 inhibitors” (AMGEN INC., priority 2020, dated 2023)
Read-outs that look alike come from different tables or passages of the source.

How the values were obtained:
[1] = tested on: HCT116 WT cells; assay: HCT116 WT cell line proliferation (CellTiter-Glo cell viability, 6 days); type: cell-based; settings: HCT116 WT (parent) cells, 6 days of treatment, CellTiter-Glo cell viability, read-out: HCT-116 WT IC50
Summary of the method: (§1)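 Isogenic HCT116 pair (parent and MTAP double-allele knockout) in RPMI 1640 + 10% FBS, exposed 6 days to compound: 8–9-point 1:3 dilutions from 1 or 10 μM top, or 22-point 1:2 dilutions from 10 or 50 μM top. CellTiter-Glo luminescence; IC50 from sigmoidal fit (Hill −1) or 4-parameter logistic.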

[2] = tested on: HCT116 MTAP null cells; assay: HCT116 MTAP null cell line proliferation (CellTiter-Glo cell viability, 6 days); type: cell-based; settings: HCT116 MTAP null cells, 6 days of treatment, CellTiter-Glo cell viability, read-out: HCT-116 MTAP null IC50
Summary of the method: as §1

Compound	IC50 ([1]; Homo sapiens, HCT-116, 144 h)	IC50 ([2]; HCT116-MTAP null, 144 h)	IC50 [1]	IC50 [2]
Nc1nc2cnc(C(=O)N3CCSC[C@@H]3c3ccc(C(F)(F)F)cc3)cc2c2c1COC2 (single isomer, unassigned) [Example 595, (4-amino-1,3-dihydrofuro[3,4-c][1,7]naphthyridin-8-yl)((3S)-3-(4-(trifluoromethyl)phenyl)-4-thiomorpholinyl)methanone or (4-amino-1,3-dihydrofuro[3,4-c][1,7]naphthyridin-8-yl)((3R)-3-(4-(trifluoromethyl)phenyl)-4-thiomorpholinyl)methanone]	8010 nM	138 nM		
Nc1nc2cnc(C(=O)N3CCNC[C@@H]3c3ccc(C(F)(F)F)cc3)cc2c2c1COC2 (single isomer, unassigned) [Example 596, (4-amino-1,3-dihydrofuro[3,4-c][1,7]naphthyridin-8-yl)((2S)-2-(4-(trifluoromethyl)phenyl)-1-piperazinyl)methanone or (4-amino-1,3-dihydrofuro[3,4-c][1,7]naphthyridin-8-yl)((2R)-2-(4-(trifluoromethyl)phenyl)-1-piperazinyl)methanone]	> 10000 nM	580 nM		
Nc1nc2cnc(C(=O)N3CCCOC[C@@H]3c3ccc(C(F)(F)F)cc3)cc2c2c1COC2 (single isomer, unassigned) [Example 597, (4-amino-1,3-dihydrofuro[3,4-c][1,7]naphthyridin-8-yl)((3S)-3-(4-(trifluoromethyl)phenyl)-1,4-oxazepan-4-yl)methanone or (4-amino-1,3-dihydrofuro[3,4-c][1,7]naphthyridin-8-yl)((3R)-3-(4-(trifluoromethyl)phenyl)-1,4-oxazepan-4-yl)methanone]	> 10000 nM	866 nM		
Nc1nc2cnc(C(=O)N3CCC(F)(F)C[C@@H]3c3ccc(C(F)(F)F)cc3)cc2c2c1COC2 (single isomer, unassigned) [Example 598]	> 10000 nM	807 nM		
Nc1nc2cnc(C(=O)N3CCC(F)(F)C[C@H]3c3ccc(C(F)(F)F)cc3)cc2c2c1COC2 (single isomer, unassigned) [Example 599]	> 10000 nM	> 10000 nM		
Nc1nc2cnc(C(=O)N3CCC(F)(F)C[C@@H]3c3ccc(OC(F)(F)F)cc3)cc2c2c1COC2 (single isomer, unassigned) [Example 600]	> 10000 nM	921 nM		
Nc1nc2cnc(C(=O)N3CCC(F)(F)C[C@H]3c3ccc(OC(F)(F)F)cc3)cc2c2c1COC2 (single isomer, unassigned) [Example 601]	> 10000 nM	> 10000 nM		
Nc1nc2cnc(C(=O)N3CCOC[C@@H]3c3c(F)cc(Br)cc3F)cc2c2c1COC2 (single isomer, unassigned) [Example 602]	10000 nM	149 nM		
Nc1nc2ccc(C(=O)N3CCOC[C@@H]3c3ccc(CC(F)(F)F)cc3)cc2c2c1COC2 (single isomer, unassigned) [Example 603]	10200 nM	420 nM		
Nc1nc2cnc(C(=O)N3CCOC[C@@H]3c3ccc(CC(F)(F)F)cc3)cc2c2c1COC2 (single isomer, unassigned) [Example 604]	7270 nM	87 nM		
Cc1ccc([C@@H]2COCCN2C(=O)c2ccc3nc(N)c4c(c3c2)COC4)cn1 (single isomer, unassigned) [Example 605]	> 10000 nM	> 1000 nM		
Cc1ccc([C@H]2COCCN2C(=O)c2ccc3nc(N)c4c(c3c2)COC4)cn1 (single isomer, unassigned) [Example 606]	> 10000 nM	1030 nM		
Cc1ccc([C@H]2COCCN2C(=O)c2cc3c4c(c(N)nc3cn2)COC4)cn1 (single isomer, unassigned) [Example 607]	> 10000 nM	> 1000 nM		
Cc1ccc([C@@H]2COCCN2C(=O)c2cc3c4c(c(N)nc3cn2)COC4)cn1 (single isomer, unassigned) [Example 608]	> 10000 nM	> 1000 nM		
Nc1nc2ccc(C(=O)N3CCOC[C@@H]3c3ccc(C(F)(F)F)nc3)cc2c2c1COC2 (single isomer, unassigned) [Example 609]	9110 nM	207 nM		
Nc1nc2ccc(C(=O)N3CCOC[C@H]3c3ccc(C(F)(F)F)nc3)cc2c2c1COC2 (single isomer, unassigned) [Example 610]	> 10000 nM	> 1000 nM		
Nc1nc2cnc(C(=O)N3CCOC[C@H]3c3cnc(C(F)(F)F)nc3)cc2c2c1COC2 (single isomer, unassigned) [Example 611]	> 10000 nM	> 1000 nM		
Nc1nc2cnc(C(=O)N3CCOC[C@@H]3c3cnc(C(F)(F)F)nc3)cc2c2c1COC2 (single isomer, unassigned) [Example 612]	> 10000 nM	> 1000 nM		
Nc1nc2cnc(C(=O)N3CCOC[C@@H]3c3cnc(C(F)(F)F)cn3)cc2c2c1COC2 (single isomer, unassigned) [Example 613]	> 10000 nM	1830 nM		
Nc1nc2cnc(C(=O)N3CCOC[C@H]3c3cnc(C(F)(F)F)cn3)cc2c2c1COC2 (single isomer, unassigned) [Example 614]			> 10000 nM	> 10000 nM
Nc1nc2cnc(C(=O)N3CCOC[C@@H]3c3cc(C(F)(F)F)cs3)cc2c2c1COC2 (single isomer, unassigned) [Example 615]	3460 nM	241 nM		
Nc1nc2cnc(C(=O)N3CCOC[C@H]3c3ccc(C(F)(F)F)s3)cc2c2c1COC2 (single isomer, unassigned) [Example 616]	> 10000 nM	3240 nM		
Nc1nc2cnc(C(=O)N3CCOC[C@@H]3c3ccc(C(F)(F)F)s3)cc2c2c1COC2 (single isomer, unassigned) [Example 617]	5730 nM	228 nM		
Nc1nc2cnc(C(=O)N3CCOC[C@@H]3c3cc(Cl)c(Cl)s3)cc2c2c1COC2 (single isomer, unassigned) [Example 618]	> 10000 nM	300 nM		
C[C@H]1OCc2c1c(N)nc1cnc(C(=O)N3CCOC[C@@H]3c3ccc(OC(F)(F)F)cc3)cc21 (single isomer, unassigned) [Example 619]	1980 nM	49 nM		
Cn1ncc2c(N)nc3cc(F)c(C(=O)N4C[C@@H]5C[C@]5(c5ccc(C(F)(F)F)cc5)C4)cc3c21 (single isomer, unassigned) [Example 620]	4230 nM	634 nM		
Cn1ncc2c(N)nc3cc(F)c(C(=O)N4C[C@H]5C[C@@]5(c5ccc(C(F)(F)F)cc5)C4)cc3c21 (single isomer, unassigned) [Example 621]	4410 nM	175 nM		
Nc1nc2ccc(C(=O)N3CCOC[C@@H]3c3ncc(Br)cc3F)cc2c2c1COC2 (single isomer, unassigned) [Example 622]	7950 nM	239 nM		
Nc1nc2ccc(C(=O)N3CCOCC3c3ncccn3)cc2c2c1COC2 (stereo not drawn) [Example 300, (4-amino-1,3-dihydrofuro[3,4-c]quinolin-8-yl)(3-(pyrimidin-2-yl)morpholino)methanone]	> 10000 nM	> 1000 nM		
Nc1nc2ccc(C(=O)N3CCOC[C@@H]3c3ccc(OC(F)(F)F)cc3)cc2c2c1COC2 [Example 335, (4-amino-1,3-dihydrofuro[3,4-c]quinolin-8-yl)-[(3S)-3-[4-(trifluoromethoxy)phenyl]morpholin-4-yl]methanone]	2690 nM	91 nM		
